Measured values: patent publication US20040009905A1 (B.M.R.A. Corporation B.V., priority 1998, published 2004)
Entries after “also recorded” stand apart in the source; their conditions may differ. Where two headings read alike, the source gives them in different places. The star is where a group is joined. aminooxyacetyl = NOCC(=O)*

Tests used:
[1] = test system: domestic pigs; details: pig, in vivo
Experimental: Experiments were performed on 16 domestic pigs of both sexes (body weight 20-30 kg). The animals were premedicated with atropine (0.05 mg/kg) and ketamine (Ketalar, ParkeDavis, USA, 20 mg/kg i.m.) and anaesthetized with thiopentone (5 mg/kg i.v.). A tracheostomy was performed and artificial ventilation was started using a volume regulated ventilator (type Siemens 900). During surgery, continuous i.v. infusion of Ringer's solution, thiopentone (15 mg/kg/h) and pancuronium bromide (0.25 mg/kg/h) was performed.
Catheters were placed in the femoral artery for systemic blood pressure and heart rate monitoring and in the femoral vein for thiopentone and fluid administration (300 ml/h). […] Nasal arterial blood flow was monitored with a Transonic flow probe (RB 143) placed around the sphenopalatine artery and connected to a T 202 ultrasonic blood flowmeter (Transonic System Inc., Ithaca, N.Y., USA).
Heart rate and systemic arterial blood pressure using the femoral artery catheter connected to a pressure transducer.
Sphenopalatine arterial blood flow using an Ultrasonic flow meter probe (see above).

[2] = test system: domestic pigs; details: pig, in vivo; remark: listed apart in the source
Experimental: Experiments were performed on 16 domestic pigs of both sexes (body weight 20-30 kg). The animals were premedicated with atropine (0.05 mg/kg) and ketamine (Ketalar, ParkeDavis, USA, 20 mg/kg i.m.) and anaesthetized with thiopentone (5 mg/kg i.v.). A tracheostomy was performed and artificial ventilation was started using a volume regulated ventilator (type Siemens 900). During surgery, continuous i.v. infusion of Ringer's solution, thiopentone (15 mg/kg/h) and pancuronium bromide (0.25 mg/kg/h) was performed. […]
2. […] Airway pressure was measured from a catheter positioned at the tip of the endotracheal tube. Transpulmonary pressure was determined by a differential pressure transducer (Hewlett-Packard 267B) taking the difference between tracheal and oesophagus pressure. Tidal volume was determined by integration of the respiratory flow signal measured with a pneumotachograph (Gould Godard, model 17212) by means of a heated Fleisch flow transducer #2 connected to the endotracheal tube. Transpulmonary pressure, tidal volume and flow were continuously recorded on a 4-channel recorder (Hewlett-Packard, 7754 GB). Total airflow resistance across the lungs (raw) was determined by dividing the difference in transpulmonary pressure by inspiratory plus expiratory flow at mid-tidal volume. […]

[3] = target: T1, NPY Y2 receptor (Homo sapiens, UniProt P49146); assay: Y2 radioreceptor binding assay (125I-NPY displacement, LN319 cells); details: FIG. 7
T1 construct: endogenous in cells; host or cells: LN319 (human glioblastoma)
T1 sequence (P49146 1-381): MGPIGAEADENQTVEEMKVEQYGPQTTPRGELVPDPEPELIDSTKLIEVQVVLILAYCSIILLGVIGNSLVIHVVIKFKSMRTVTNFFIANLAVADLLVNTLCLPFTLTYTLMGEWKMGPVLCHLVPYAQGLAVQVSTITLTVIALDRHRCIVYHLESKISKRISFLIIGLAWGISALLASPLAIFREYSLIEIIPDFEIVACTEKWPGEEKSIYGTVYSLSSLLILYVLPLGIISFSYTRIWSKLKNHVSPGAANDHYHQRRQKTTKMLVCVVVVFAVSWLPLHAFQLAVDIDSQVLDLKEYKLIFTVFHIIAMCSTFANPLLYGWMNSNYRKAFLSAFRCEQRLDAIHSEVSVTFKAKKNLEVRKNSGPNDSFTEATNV
Experimental: Tissue culture media were purchased from Life Technologies (Basel, Switzerland) and fetal calf serum was obtained from Seromed (Berlin, Germany). 70% confluent cells were washed with PBS and harvested using 0.15% Trypsin containing 0.4 mM EDTA. Cells were further diluted 1/3 and plated onto either 60 mm cell culture dishes (Nunc, Denmark) or 12-mm glass coverslips (Huber and Co, AG, Reinach, Switzerland). Media were changed every 3 days. A human glioblastoma cell line, LN319, was used for Y2 binding studies (Greber, et al., Br. J. Pharmacol. 113:737-740 (1994)). Prior to performing binding assays, adhered LN319 cells were washed extensively with phosphate buffered saline. […] After centrifugation at 600 g for 15 minutes at a temperature of 4° C., the pellet was resuspended in the harvesting buffer. […] Incubation proceeded at room temperature for 45 minutes. Bound radioactivity was determined after separating the unbound fraction by centrifugation.

[4] = Circular dichroism spectroscopy of conformational properties; assay type: physicochemical; details: in TFE, 295K
Experimental: The conformational properties of TASP-V were studied in solution mainly by circular dichroism (CD) spectroscopy under various experimental conditions. In order to detect effects of template attachment on secondary and tertiary structure formation, the corresponding single (not template attached) peptide IV was also studied.
CD spectra were recorded on a Jobin Yvon Dichrograph Mark VI calibrated with D(+)-10-camphorsulfonic acid. All measurements were performed at 295K using quartz cells with a path length of 0.1 cm and each spectrum was the average of three repeated scans between 185 nm to 250 nm, with an integration time of Is for 0.8 nm steps. The spectra were corrected by substraction of the background solvent spectrum obtained under identical experimental conditions and smoothed for clarity of display. CD intensities are expressed as mean residue ellipticities (deg cm2 dmol-1), calculated by dividing the total molar ellipticities by the number of amino acids in the peptide.

CC[C@H](C)[C@H](NC(=O)[C@H](Cc1ccc(O)cc1)NC(=O)[C@H](Cc1c[nH]cn1)NC(=O)[C@H](CCCNC(=N)N)NC(=O)[C@H](CC(C)C)NC(=O)[C@H](C)NC(=O)[C@H](CO)NC(=O)[C@H](Cc1ccc(O)cc1)NC(=O)CNC(=O)CON=CC(=O)NCCCC[C@@H]1NC(=O)CNC(=O)[C@H](CCCCNC(=O)C=NOCC(=O)NCC(=O)N[C@@H](Cc2ccc(O)cc2)C(=O)N[C@@H](CO)C(=O)N[C@@H](C)C(=O)N[C@@H](CC(C)C)C(=O)N[C@@H](CCCNC(=N)N)C(=O)N[C@@H](Cc2c[nH]cn2)C(=O)N[C@@H](Cc2ccc(O)cc2)C(=O)N[C@H](C(=O)N[C@@H](CC(N)=O)C(=O)N[C@@H](CC(C)C)C(=O)N[C@H](C(=O)N[C@H](C(=O)N[C@@H](CCCNC(=N)N)C(=O)N[C@@H](CCC(N)=O)C(=O)N[C@@H](CCCNC(=N)N)C(=O)N[C@@H](Cc2ccc(O)cc2)C(N)=O)[C@@H](C)O)[C@@H](C)CC)[C@@H](C)CC)NC(=O)c2ccc3cccc(c3c2)CNC1=O)C(=O)N[C@@H](CC(N)=O)C(=O)N[C@@H](CC(C)C)C(=O)N[C@H](C(=O)N[C@H](C(=O)N[C@@H](CCCNC(=N)N)C(=O)N[C@@H](CCC(N)=O)C(=O)N[C@@H](CCCNC(=N)N)C(=O)N[C@@H](Cc1ccc(O)cc1)C(N)=O)[C@@H](C)O)[C@@H](C)CC [TASP-V]
Change in heart rate or mean arterial blood pressure [1]: did not induce any change | Change in heart rate or mean arterial blood pressure [2]: did not induce any change

Leu31, Pro34 NPY: Leu31- and Pro34-substituted NPY, shown to be a Y1 agonist
Affinity / binding to the Y2 receptor (in words) [3]: poor affinity binding; also recorded: bound poorly

IV: single, not template attached aminooxyacetyl NPY21-36 amide peptide (IV in FIG. 5) (aminooxyacetyl-YSALRHYINLITRQRY-NH2; SMILES CC[C@H](C)[C@H](NC(=O)[C@H](Cc1ccc(O)cc1)NC(=O)[C@H](Cc1c[nH]cn1)NC(=O)[C@H](CCCNC(=N)N)NC(=O)[C@H](CC(C)C)NC(=O)[C@H](C)NC(=O)[C@H](CO)NC(=O)[C@H](Cc1ccc(O)cc1)NC(=O)CON)C(=O)N[C@@H](CC(N)=O)C(=O)N[C@@H](CC(C)C)C(=O)N[C@H](C(=O)N[C@H](C(=O)N[C@@H](CCCNC(=N)N)C(=O)N[C@@H](CCC(N)=O)C(=O)N[C@@H](CCCNC(=N)N)C(=O)N[C@@H](Cc1ccc(O)cc1)C(N)=O)[C@@H](C)O)[C@@H](C)CC; UniProt P01303 49-64, looked up, fragment)
Helicity / secondary structure content by CD [4]: < 30%
